Holding throughout (experiment): relative viability (nuclei count vs DMSO), 5 days (fraction); higher = more cells survive
Compound in assay [1]: COc1cc2nc(N3CCCN(C)CC3)nc(NC3CCN(Cc4ccccc4)CC3)c2cc1OC + O=C(c1cc(Cc2n[nH]c(=O)c3ccccc23)ccc1F)N1CCN(C(=O)C2CC2)CC1 [Olaparib] (partner 8 µM)
Summed up: (§1)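 Lung cancer cell lines were pin-tool dosed in 1536-well plates on the day after seeding, with either a lone drug or a fixed anchor-drug dose plus five library-drug doses (not always all listed) in √10 steps. Nuclei were counted on 4× images after 5 days. Relative viability is the ratio of treated-well to vehicle-well nuclei counts, with each value a median of duplicate plates.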

Compound in the assay “AZD6482 + Trametinib”: Cc1cc([C@@H](C)Nc2ccccc2C(=O)O)c2nc(N3CCOCC3)cc(=O)n2c1 [AZD6482] + CC(=O)Nc1cccc(-n2c(=O)n(C3CC3)c(=O)c3c(Nc4ccc(I)cc4F)n(C)c(=O)c(C)c32)c1 [Trametinib] (partner 0.02 µM)
Summed up:
as §1

Compound in the assay “AZD6482 + OSI-027”: Cc1cc([C@@H](C)Nc2ccccc2C(=O)O)c2nc(N3CCOCC3)cc(=O)n2c1 [AZD6482] + COc1cccc2cc(-c3nc([C@H]4CC[C@H](C(=O)O)CC4)n4ncnc(N)c34)[nH]c12 [OSI-027] (partner 0.5 µM)
Summed up:
as §1

Compound in the assay “AZD6482 + Crizotinib”: Cc1cc([C@@H](C)Nc2ccccc2C(=O)O)c2nc(N3CCOCC3)cc(=O)n2c1 [AZD6482] + C[C@@H](Oc1cc(-c2cnn(C3CCNCC3)c2)cnc1N)c1c(Cl)ccc(F)c1Cl [Crizotinib] (partner 1 µM)
Summed up: as §1

As to NCI-H596, the relative viability in assay [1] (first compound 0.2 µM) was 0.677; in assay [1] (first compound 0.6325 µM), 0.721; in assay [1] (first compound 2 µM), 0.736; in assay [1] (first compound 6.325 µM) it was 0.672; in the assay with AZD6482 + Trametinib (first compound 0.08 µM), 0.633; in the assay with AZD6482 + Trametinib (first compound 0.253 µM), 0.817. Besides, the relative viability in the assay with AZD6482 + Trametinib (first compound 0.8 µM) stood at 0.774; with AZD6482 + Trametinib (first compound 2.53 µM) it was 0.589; in the assay with AZD6482 + Trametinib (first compound 8 µM) it was 0.59; with AZD6482 + OSI-027 (first compound 0.08 µM), 0.676; with AZD6482 + OSI-027 (first compound 0.253 µM), 0.596; with AZD6482 + OSI-027 (first compound 0.8 µM), 0.809. The relative viability with AZD6482 + OSI-027 (first compound 2.53 µM) was 0.732; in the assay with AZD6482 + OSI-027 (first compound 8 µM), 0.559; with AZD6482 + Crizotinib (first compound 0.08 µM), 0.792; with AZD6482 + Crizotinib (first compound 0.253 µM), 0.824; with AZD6482 + Crizotinib (first compound 0.8 µM), 1; with AZD6482 + Crizotinib (first compound 2.53 µM), 0.943. Besides, the relative viability with AZD6482 + Crizotinib (first compound 8 µM) was found to be 0.871.

Regarding NCI-H23, the relative viability in assay [1] (first compound 0.2 µM) worked out at 0.299; in assay [1] (first compound 0.6325 µM), 0.271; in assay [1] (first compound 2 µM), 0.344; in assay [1] (first compound 6.325 µM), 0.285; with AZD6482 + Trametinib (first compound 0.08 µM), 0.33; in the assay with AZD6482 + Trametinib (first compound 0.253 µM), 0.34. Besides, the relative viability with AZD6482 + Trametinib (first compound 0.8 µM) amounted to 0.326; with AZD6482 + Trametinib (first compound 2.53 µM) it was 0.283; with AZD6482 + Trametinib (first compound 8 µM), 0.247; with AZD6482 + OSI-027 (first compound 0.08 µM) it was 0.592; with AZD6482 + OSI-027 (first compound 0.253 µM), 0.512; in the assay with AZD6482 + OSI-027 (first compound 0.8 µM), 0.592. Besides, the relative viability came to 0.364 with AZD6482 + OSI-027 (first compound 2.53 µM); 0.302 with AZD6482 + OSI-027 (first compound 8 µM); 0.444 with AZD6482 + Crizotinib (first compound 0.08 µM); 0.426 with AZD6482 + Crizotinib (first compound 0.253 µM); 0.481 in the assay with AZD6482 + Crizotinib (first compound 0.8 µM); 0.369 in the assay with AZD6482 + Crizotinib (first compound 2.53 µM). Moreover, the relative viability with AZD6482 + Crizotinib (first compound 8 µM) came to 0.417.

LCLC-97TM1: the relative viability in assay [1] (first compound 0.2 µM) stood at 0.488; in assay [1] (first compound 0.6325 µM), 0.312; in assay [1] (first compound 2 µM), 0.48; in assay [1] (first compound 6.325 µM) it was 0.63; in the assay with AZD6482 + Trametinib (first compound 0.08 µM) it was 0.2; with AZD6482 + Trametinib (first compound 0.253 µM), 0.202. Further, the relative viability with AZD6482 + Trametinib (first compound 0.8 µM) worked out at 0.171; with AZD6482 + Trametinib (first compound 8 µM), 0.154; with AZD6482 + OSI-027 (first compound 0.08 µM), 0.482; in the assay with AZD6482 + OSI-027 (first compound 0.253 µM), 0.399; with AZD6482 + OSI-027 (first compound 0.8 µM), 0.384; with AZD6482 + OSI-027 (first compound 2.53 µM), 0.255. Also, the relative viability was 0.312 with AZD6482 + OSI-027 (first compound 8 µM); 0.479 with AZD6482 + Crizotinib (first compound 0.08 µM); 0.327 with AZD6482 + Crizotinib (first compound 0.253 µM); 0.298 in the assay with AZD6482 + Crizotinib (first compound 0.8 µM); 0.294 with AZD6482 + Crizotinib (first compound 2.53 µM); 0.234 with AZD6482 + Crizotinib (first compound 8 µM).

Turning to EPLC-272H, the relative viability was determined as 0.738 in assay [1] (first compound 0.2 µM); 0.888 in assay [1] (first compound 0.6325 µM); 0.767 in assay [1] (first compound 2 µM); 0.329 in assay [1] (first compound 6.325 µM); 0.251 with AZD6482 + Trametinib (first compound 0.08 µM); 0.213 with AZD6482 + Trametinib (first compound 0.253 µM). Besides, the relative viability was 0.27 in the assay with AZD6482 + Trametinib (first compound 0.8 µM); 0.234 in the assay with AZD6482 + Trametinib (first compound 2.53 µM); 0.194 with AZD6482 + Trametinib (first compound 8 µM); 0.29 with AZD6482 + OSI-027 (first compound 0.08 µM); 0.235 in the assay with AZD6482 + OSI-027 (first compound 0.253 µM); 0.345 with AZD6482 + OSI-027 (first compound 0.8 µM). Also, the relative viability in the assay with AZD6482 + OSI-027 (first compound 2.53 µM) is 0.214; with AZD6482 + OSI-027 (first compound 8 µM) it was 0.255; with AZD6482 + Crizotinib (first compound 0.08 µM), 0.796; in the assay with AZD6482 + Crizotinib (first compound 0.8 µM), 0.835; with AZD6482 + Crizotinib (first compound 2.53 µM), 0.649; with AZD6482 + Crizotinib (first compound 8 µM), 0.584.

As for NCI-H1915, the relative viability came to 0.243 in assay [1] (first compound 0.2 µM); 0.267 in assay [1] (first compound 0.6325 µM); 0.272 in assay [1] (first compound 2 µM); 0.251 in assay [1] (first compound 6.325 µM); 0.257 in the assay with AZD6482 + Trametinib (first compound 0.08 µM); 0.27 with AZD6482 + Trametinib (first compound 0.253 µM). Moreover, the relative viability in the assay with AZD6482 + Trametinib (first compound 0.8 µM) turned out to be 0.29; with AZD6482 + Trametinib (first compound 2.53 µM) it was 0.239; with AZD6482 + Trametinib (first compound 8 µM) it was 0.226; with AZD6482 + OSI-027 (first compound 0.08 µM), 0.575; in the assay with AZD6482 + OSI-027 (first compound 0.253 µM), 0.57; with AZD6482 + OSI-027 (first compound 0.8 µM), 0.689. The relative viability in the assay with AZD6482 + OSI-027 (first compound 2.53 µM) was 0.505; in the assay with AZD6482 + OSI-027 (first compound 8 µM), 0.595; with AZD6482 + Crizotinib (first compound 0.08 µM), 0.845; with AZD6482 + Crizotinib (first compound 0.253 µM) it was 0.8; with AZD6482 + Crizotinib (first compound 0.8 µM), 0.935; in the assay with AZD6482 + Crizotinib (first compound 2.53 µM), 0.838. The relative viability with AZD6482 + Crizotinib (first compound 8 µM) is 0.863.

On to NCI-H2405, for which the relative viability came out at 0.886 in assay [1] (first compound 0.2 µM); 0.847 in assay [1] (first compound 0.6325 µM); 0.91 in assay [1] (first compound 2 µM); 0.883 in assay [1] (first compound 6.325 µM); 0.459 with AZD6482 + Trametinib (first compound 0.08 µM); 0.559 with AZD6482 + Trametinib (first compound 0.253 µM). The relative viability stood at 0.531 in the assay with AZD6482 + Trametinib (first compound 0.8 µM); 0.365 in the assay with AZD6482 + Trametinib (first compound 2.53 µM); 0.395 in the assay with AZD6482 + Trametinib (first compound 8 µM); 0.46 with AZD6482 + OSI-027 (first compound 0.08 µM); 0.595 in the assay with AZD6482 + OSI-027 (first compound 0.8 µM); 0.369 with AZD6482 + OSI-027 (first compound 2.53 µM). Further, the relative viability with AZD6482 + OSI-027 (first compound 8 µM) was determined as 0.336; with AZD6482 + Crizotinib (first compound 0.08 µM), 0.577; with AZD6482 + Crizotinib (first compound 0.253 µM), 0.772; with AZD6482 + Crizotinib (first compound 0.8 µM) it was 0.893; with AZD6482 + Crizotinib (first compound 2.53 µM), 0.587; with AZD6482 + Crizotinib (first compound 8 µM), 0.546.

Source of the values: the supplement of paper PMC10307832.
